# Data reported in paper PMC10033419, “Blocking NS3–NS4B interaction inhibits dengue virus in non-human primates” (Nature, 2023).
# Several values for one entry are separate records, joined by “and”; a condition that tells them apart may be missing. Equal entries are not always repeated. Where two headings read alike, the source gives them in different places.
# Key:
# DENV-2 RL strain = test: Day 3 viraemia model, high viral inoculum (10^6 PFU); format: in vivo, AG129 mice
# Plasma protein binding = format: in vitro ADME; settings: mouse, mice
# HBV replicon = test: microbe, parasite or virus in culture; format: cell-based; settings: Hepatitis B virus
# THP-1/DC-SIGN cells = test: ATPLite cell viability assay; format: cell-based, human
# Description: In parallel, the toxicity was measured using an ATPLite cell viability luminescence assay (PerkinElmer). The assays were performed in three different cell types (Vero, Huh-7 and THP-1/DC-SIGN) as described in ref. [3] to exclude cell-specific activity of the compound.
# DENV-2/16681 = test: NHP DENV-2 study, anti-DENV IgG ELISA; set-up: species or system rhesus macaques (M. mulatta); settings: rhesus monkey, in vivo
# INF-A PR8/1934 = test: microbe, parasite or virus in culture; format: cell-based; settings: Influenza A virus, PR8, MDCK
# [1] = Pharmacokinetics in mice, i.v. and oral; format: in vivo, CD-1 mice; settings: for bioavailability: po
# Description: The housing conditions and experimental procedures were approved by the ethics committee on animal experiments of Janssen Pharmaceutica NV (license number LA1100119). Janssen Pharmaceutica NV has full AAALAC accreditation. […] The blood samples were immediately centrifuged at 4 °C and the plasma was stored at −20 °C. Compound concentrations in the plasma samples were determined using the API 5500 LC–MS/MS system mass spectrometer (Applied Biosystems). […] (Certara).
# [2] = Study 2 - 160510, 20 mg/kg/d, individual animals, listed as 64281802-AAA
# [3] = Study 3 - 170410, 0,2 mg/kg/d, first group of 8, individual animals, listed as 64281802-AAA
# [4] = Study 3 - 170410, 0,2 mg/kg/d, second group of 8, individual animals, listed as 64281802-AAA
# [5] = Study 3 - 170410, 0,6 mg/kg/d, individual animals, listed as 64281802-AAA
# [6] = Study 3 - 170410, 20 mg/kg/d, individual animals
# [7] = male, CD-1, plasma, mouse oral 1 mg/kg
# [8] = male, CD-1, plasma, mouse oral 10 mg/kg
# [9] = male, CD-1, plasma, mouse oral 30 mg/kg
# [10] = mouse i.v. 2.5 mg/kg, 2.5 mg/kg
compound,measurement,setting,value
COc1cc(N[C@H](C(=O)c2c[nH]c3ccc(OC(F)(F)F)cc23)c2ccc(Cl)cc2OC)cc(S(C)(=O)=O)c1 [JNJ-1802],Av Log 10 (average),"DENV-2 RL strain; Study 2 - 160510, 20 mg/kg/d, group average",2.83
same,Av Log 10 (Ave/Med: median),"DENV-2 RL strain; Study 2 - 160510, 20 mg/kg/d, group median",2.59
same,Copy number,DENV-2 RL strain; [2],1.05E+04 and 3.93E+02
same,Log 10 (copy number),DENV-2 RL strain; [2],4.02 and 2.59
same,Av Log 10 (average),"DENV-2 RL strain; Study 3 - 170410, 0,2 mg/kg/d, first group of 8, group average",6.01
same,Av Log 10 (Ave/Med: median),"DENV-2 RL strain; Study 3 - 170410, 0,2 mg/kg/d, first group of 8, group median",6.07
same,Copy number,DENV-2 RL strain; [3],1.86E+06 and 1.20E+06 and 1.13E+06 and 8.80E+05 and 2.24E+05 and 2.37E+06
same,Log 10 (copy number),DENV-2 RL strain; [3],6.27 and 6.08 and 6.05 and 5.94 and 5.35 and 6.38
same,Av Log 10 (average),"DENV-2 RL strain; Study 3 - 170410, 0,2 mg/kg/d, second group of 8, group average",5.85
same,Av Log 10 (Ave/Med: median),"DENV-2 RL strain; Study 3 - 170410, 0,2 mg/kg/d, second group of 8, group median",6.03
same,Copy number,DENV-2 RL strain; [4],1.58E+06 and 7.37E+04 and 5.97E+06 and 8.67E+05 and 1.42E+06 and 1.06E+06 and 9.43E+04
same,Log 10 (copy number),DENV-2 RL strain; [4],6.20 and 4.87 and 6.78 and 5.94 and 6.15 and 6.03 and 4.97
same,Av Log 10 (average),"DENV-2 RL strain; Study 3 - 170410, 0,6 mg/kg/d, group average",3.92
same,Av Log 10 (Ave/Med: median),"DENV-2 RL strain; Study 3 - 170410, 0,6 mg/kg/d, group median",4.48
same,Copy number,DENV-2 RL strain; [5],3.45E+04 and 2.62E+04 and 3.90E+04 and 3.93E+02
same,Log 10 (copy number),DENV-2 RL strain; [5],5.16 and 4.86 and 4.54 and 4.42 and 4.59 and 2.59
same,Av Log 10 (average),"DENV-2 RL strain; Study 3 - 170410, 20 mg/kg/d, group average",2.59
same,Av Log 10 (Ave/Med: median),"DENV-2 RL strain; Study 3 - 170410, 20 mg/kg/d, group median",2.59
same,Copy number,DENV-2 RL strain; [6],3.93E+02
same,Log 10 (copy number),DENV-2 RL strain; [6],2.59
same,Copy number,"DENV-2 RL strain; mouse, in vivo, 6 mg/kg/day",1.28E+04
same,fraction unbound,Plasma protein binding,< 0.001
same,EC50,HBV replicon; HepG2.117,10 µM
same,EC50,"HBV replicon; HepG2.117, read-out: EC50, Mean",9.96 µM
same,EC90,"HBV replicon; HepG2.117, read-out: EC90, Mean",12.5 µM
same,CC50,"THP-1/DC-SIGN cells; individual data, read-out: CC50, individual data",> 0.5 µM
same,CC50,"THP-1/DC-SIGN cells; mean, read-out: CC50 Mean",> 0.5 µM
same,IgG seroconversion,DENV-2/16681,observed at later timepoints
same,animals with detectable anti-DENV IgG,DENV-2/16681,none of the animals
same,EC50,INF-A PR8/1934,> 2.6 µM
same,EC50,"INF-A PR8/1934; read-out: EC50, Mean",> 25 µM
same,EC90,"INF-A PR8/1934; read-out: EC90, Mean",> 25 µM
same,clearance,"[1]; male, CD-1, in vivo, iv, mouse i.v. 2.5 mg/kg, read-out: CLp",4.97 ± 1.26 mL/min/kg
same,Cmax,"[1]; male, CD-1, in vivo, mouse oral 3 mg/kg",501 ± 149 ng/mL
same,half-life,"[1]; male, CD-1, mouse, plasma, iv, 2.5 mg/kg, mouse i.v. 2.5 mg/kg",6.2 h
same,bioavailability,"[1]; male, CD-1, mouse, plasma, 1 mg/kg, mouse oral 1 mg/kg",46 ± 6%
same,bioavailability,"[1]; male, CD-1, mouse, plasma, 3 mg/kg, mouse oral 3 mg/kg",59 ± 28%
same,bioavailability,"[1]; male, CD-1, mouse, plasma, 10 mg/kg, mouse oral 10 mg/kg",> 100%
same,bioavailability,"[1]; male, CD-1, mouse, plasma, 30 mg/kg, mouse oral 30 mg/kg",121 ± 21%
same,AUC(0-t),"[1]; male, CD-1, mouse, plasma, mice, single oral dose 1 to 30 mg per kg, read-out: AUC0–24h, range",1520 to 120000 ng·h/mL
same,AUC(0-inf),"[1]; male, CD-1, plasma, iv, mouse i.v. 2.5 mg/kg",8820 ng·h/mL
same,AUC(0-t),"[1]; male, CD-1, plasma, iv, mouse i.v. 2.5 mg/kg, read-out: AUC(0-24h)",8240 ng·h/mL
same,Cmax,[1]; [7],119 ± 26 ng/mL
same,Tmax,[1]; [7],5 ± 1.7 h
same,AUC(0-t),"[1]; male, CD-1, plasma, mouse oral 1 mg/kg, read-out: AUC(0-24h)",1520 ng·h/mL
same,Tmax,"[1]; male, CD-1, plasma, mouse oral 3 mg/kg",5 ± 1.7 h
same,AUC(0-t),"[1]; male, CD-1, plasma, mouse oral 3 mg/kg, read-out: AUC(0-24h)",5780 ng·h/mL
same,Cmax,[1]; [8],2730 ng/mL
same,Tmax,[1]; [8],7 h
same,AUC(0-t),"[1]; male, CD-1, plasma, mouse oral 10 mg/kg, read-out: AUC(0-24h)",35600 ng·h/mL
same,Cmax,[1]; [9],7760 ng/mL
same,Tmax,[1]; [9],6 ± 1.7 h
same,AUC(0-t),"[1]; male, CD-1, plasma, mouse oral 30 mg/kg, read-out: AUC(0-24h)",120000 ng·h/mL
same,Vdssp,[1]; [10],2.51 ± 0.55 L/kg and 2.51 ± 0.553 L/kg
same,t1/2,[1]; [10],6.17 ± 0.23 h
same,F,"[1]; mouse oral 1 mg/kg, 1 mg/kg",46.1+/-6.47%
same,F,"[1]; mouse oral 3 mg/kg, 3 mg/kg",58.5+/-27.9%
